Test results taken from article PMC10138721, “Investigation of the Compatibility between Warheads and Peptidomimetic Sequences of Protease Inhibitors—A Comprehensive Reactivity and Selectivity Study” (International Journal of Molecular Sciences, 2023).
Entries after “also recorded” stand apart in the source; their conditions may differ. Where two headings read alike, the source gives them in different places.

Tests used:
human cathepsin S (CatS) = target: T1, human cathepsin S (CatS) (Homo sapiens, UniProt P25774); assay: Fluorometric inhibition assay, cathepsin S; format: biochemical; conditions: for kinact: read-out: kinact, CatS
T1 construct: purchased Sigma Aldrich
T1 sequence (P25774 115-331): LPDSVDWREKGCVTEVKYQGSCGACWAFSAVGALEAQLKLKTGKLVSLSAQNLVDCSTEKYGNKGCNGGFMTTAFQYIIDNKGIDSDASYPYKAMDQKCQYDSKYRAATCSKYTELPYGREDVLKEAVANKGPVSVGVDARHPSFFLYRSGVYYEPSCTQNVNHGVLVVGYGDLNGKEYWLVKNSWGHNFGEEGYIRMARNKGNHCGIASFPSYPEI

rhodesain = rhodesain (Trypanosoma brucei rhodesiense, UniProt Q95PM0); assay: Fluorometric inhibition assay, rhodesain; format: biochemical; conditions: for kinact: read-out: kinact, Rhodesain
Chain of rhodesain (Q95PM0 entry or part of it): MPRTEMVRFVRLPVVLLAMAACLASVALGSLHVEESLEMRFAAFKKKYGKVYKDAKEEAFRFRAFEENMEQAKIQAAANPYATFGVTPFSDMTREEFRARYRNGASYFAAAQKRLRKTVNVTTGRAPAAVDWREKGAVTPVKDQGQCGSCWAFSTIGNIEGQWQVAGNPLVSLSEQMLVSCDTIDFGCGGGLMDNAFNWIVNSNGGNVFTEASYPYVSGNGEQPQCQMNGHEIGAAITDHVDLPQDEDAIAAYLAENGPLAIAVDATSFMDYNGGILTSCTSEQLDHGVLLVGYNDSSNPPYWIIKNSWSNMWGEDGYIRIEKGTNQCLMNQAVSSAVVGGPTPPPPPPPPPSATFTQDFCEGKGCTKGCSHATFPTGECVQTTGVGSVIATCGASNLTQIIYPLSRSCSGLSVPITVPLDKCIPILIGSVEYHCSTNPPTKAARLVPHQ

[1] = target: SARS-CoV-2 main protease (M^pro) (Severe acute respiratory syndrome coronavirus 2, UniProt P0DTD1); assay: Fluorometric (FRET) inhibition assay, SARS-CoV-2 M^pro; format: biochemical; conditions: for activity against M^pro, in words: initial screen at 20 µM, cut-off 80% inhibition
[2] = Reactivity test of warhead probes with PhEtSH without base (NMR/LC-MS); format: physicochemical; conditions: non-basic conditions; for reactivity with PhEtSH (protonated thiol), in words: DMSO-d6, up to 240 min
Description: (§1) To investigate the reactivity between the different warheads towards the three classes of proteases (serine, threonine and cysteine proteases), their behavior in model systems under the same reaction conditions (solvent, nucleophile and base) using either NMR or LC-MS analysis was investigated. We used reactivity probes with a Boc-L-Leu-(warhead) sequence. Leucin was chosen as a P1 amino acid to minimize influences of the side chain and due to synthetic accessibility. 2-Phenylethanethiol was used as a model nucleophile to mimic the thiol moiety of cysteine proteases, and sodium ethoxide was used as a serine/threonine replacement. DMSO-d6 was used as solvent. Under these conditions, the nucleophile is deprotonated, simulating the activated serine or threonine in the catalytic triad of serine and threonine proteases, while ethanol as protonated alcohol species turned out to be unreactive in preliminary test reactions. The reactivity tests using 2-phenylethanthiol were carried out in the presence and absence of triethylamine as a base. This allowed for a reactivity comparison of the warheads towards protonated and deprotonated nucleophilic thiol species. Generating a deprotonated thiol species in the presence of triethylamine simulates the deprotonated cysteine in the catalytic dyad of cysteine proteases. Scheme 8 illustrates the reaction of the reactivity assay with both model nucleophiles and the vinyl sulfone moiety 109 as an example.
(§2) The reactivity tests of all Michael acceptors, 109, 110, 111 and 112, the α-ketobenzothiazole 115 and nitrile 117 were investigated using an NMR-based analysis method, while the β-lactam 108 reactivity was investigated via LC-MS, due to its lack of proton signals, which could be used for evaluation of the reactivity in the ^1H-NMR studies, and the irreversible reaction mechanism, which allowed the LC-MS analysis. […] Formation of the expected adducts with the nitrile 117 (PhEtSH/PhEtS^–/EtONa), the α-ketobenzothiazole 115 (PhEtSH/PhEtS^–) and the nitroalkene 111 (EtONa) could not be observed. This may have been due to the covalent reversible reaction mechanism of the nitrile and α-ketobenzothiazole and the overall difficult ionization of the specific compounds by an electron spray ionization mass spectrometer.
(§3) Method A (NMR): ^1H-NMR spectra were recorded for the respective warhead and nucleophile mixture, before the addition of the nucleophile (0 min) and after 5, 30, 60, 120 and 240 min reaction time. For quantification, the double bond-signals (doublet/doublet of doublets, around 7.4–6.7 ppm) of the Michael acceptors were integrated relative to 1,3-dioxolane as an internal standard. The acetal CH2 signal of the internal standard at 5.3 ppm was used as a reference.
(§4) The α-ketobenzothiazole 115 and nitrile 117 were similarly analyzed by ^13C-NMR. Therefore, the corresponding ^13C-leucin derivates were synthesized (Scheme 7). Quantifications of the reactions were carried out by using the integral of the carbonyl carbon atom signal at 195 ppm for the α-ketobenzothiazole and 120 ppm for the nitrile moiety. The reference signal of DMSO-d6 was set to 39.52 ppm.
(§5) Method B (LC-MS): The reactivity of the β-lactam test compound 108 with the nucleophiles was investigated using an LC-MS-based method. To quantify the conversion, the AUCs were determined at 254 nm. In Figure 3, the UV spectra of the test reaction of the β-lactam 108 with EtONa are shown exemplarily.
(§6) The β-lactam 108 (0.07 mmol, 1eq) was solved in DMSO-d6 (0.5 mL). The reaction was measured in time intervals before (0 min), 5, 30, 60, 120 and 240 mins after the addition of the corresponding nucleophile (PhEtSH/EtONa, 2 eq) in presence of Et3N (2 eq) or not. In case of PhEtSH as the nucleophile the reaction got quenched by pouring 10 µL of the reaction mixture into a solution of 25 mM TRIS (pH 7.00) and 27 mM maleimide in a 1:1 mixture of acetonitrile/H2O (990 µL). For the reaction with EtONa as the nucleophile, the reaction solution […]

[3] = Reactivity test of warhead probes with PhEtSH + Et3N (NMR/LC-MS); format: physicochemical; conditions: for reactivity with PhEtSH + Et3N (deprotonated thiol), in words: DMSO-d6, up to 240 min
Description: as §1, §2, §3, §4, §5, §6

[4] = Reactivity test of warhead probes with EtONa (NMR/LC-MS); format: physicochemical; conditions: for reactivity with EtONa, in words: DMSO-d6, up to 240 min
Description: as §1, §2, §3, §4, §5, §6

[5] = Table S1; a) calculated from IC50 with Cheng–Prusoff, irreversible inhibitors from kobs fits, n.a. = not active at 20 µM, read-out: Ki, Rhodesain
[6] = Table S1, irreversible inhibitors
[7] = Table S1; a) calculated from IC50 with Cheng–Prusoff, irreversible inhibitors from kobs fits, n.a. = not active at 20 µM, * unstable towards DTT, read-out: Ki, CatS

CC(C)C[C@@H](/C=C/S(=O)(=O)c1ccccc1)NC(=O)[C@H](Cc1ccccc1)NC(=O)c1cnccn1 [compound 58]
Ki (human cathepsin S (CatS); Ki, CatS): 126 ± 71 nM | kinact (human cathepsin S (CatS)): 0.013 ± 0.002 s⁻¹ | Ki (rhodesain; Ki, Rhodesain): 331 ± 41 nM | kinact (rhodesain): 0.019 ± 0.001 s⁻¹

CCOC(=O)/C=C/C(=O)[C@H](C[C@@H]1CCNC1=O)NC(=O)[C@H](CC(C)C)NC(=O)c1cc2c(OC)cccc2[nH]1 [compound 81]
activity against CatS, in words (human cathepsin S (CatS); initial screen at 20 µM, cut-off 80% inhibition): essentially inactive | Ki (rhodesain; [5]): 99 ± 24 nM | kinact (rhodesain; [6]): 0.006 ± 0.0009 s⁻¹

COc1cccc2[nH]c(C(=O)N[C@@H](CC(C)C)C(=O)N[C@H](C#N)C[C@@H]3CCNC3=O)cc12 [compound 84]
Ki (human cathepsin S (CatS); [7]): 104 ± 9 nM | activity against M^pro, in words [1]: displayed inhibitory activity | Ki (rhodesain; [5]): 42 ± 5 nM

COc1cccc2[nH]c(C(=O)N[C@@H](CC(C)C)C(=O)N[C@H](/C=C/[N+](=O)[O-])C[C@@H]3CCNC3=O)cc12 [compound 88]
Ki (human cathepsin S (CatS); [7]): 388 ± 277 nM | Ki [1]: 2200 ± 184 nM | activity against M^pro, in words [1]: displayed inhibitory activity | Ki (rhodesain; calculated from Ki, –log10(Ki/M), read-out: pKi, Rhodesain inhibition (converted)): 2 nM

COc1cccc2[nH]c(C(=O)N[C@@H](CC(C)C)C(=O)N[C@@H](C[C@@H]3CCNC3=O)C(=O)c3nc4ccccc4s3)cc12 [compound 90]
activity against M^pro, in words [1]: displayed inhibitory activity

COc1cccc2[nH]c(C(=O)N[C@@H](CC(C)C)C(=O)N[C@H](/C=C/S(=O)(=O)c3ccccc3)C[C@@H]3CCNC3=O)cc12 [compound 93]
Ki (human cathepsin S (CatS); [7]): 330 ± 65 nM | kinact (human cathepsin S (CatS); [6]): 0.0087 ± 0.0001 s⁻¹ | Ki (human cathepsin S (CatS); calculated from Ki, –log10(Ki/M), read-out: pKi, Cathepsin S inhibition (converted)): 398 nM | Ki [1]: 3530 ± 1110 nM | activity against M^pro, in words [1]: displayed inhibitory activity | kinact ([1]; read-out: kinact, MPro): 0.0137 ± 0.0061 s⁻¹ | Ki (rhodesain; [5]): 2000 ± 604 nM | kinact (rhodesain; [6]): 0.029 ± 0.008 s⁻¹

COc1cccc2[nH]c(C(=O)N[C@@H](CC(C)C)C(=O)N[C@H](/C=C(\F)S(=O)(=O)c3ccccc3)C[C@@H]3CCNC3=O)cc12 [compound 94]
Ki (human cathepsin S (CatS); [7]): 1350 ± 90 nM | Ki [1]: 517 ± 33 nM | activity against M^pro, in words [1]: displayed inhibitory activity | Ki (rhodesain; [5]): 217 ± 31 nM

COc1cccc2[nH]c(C(=O)N[C@@H](CC(C)C)C(=O)N[C@@H](C[C@@H]3CCNC3=O)C(=O)NC3CN(c4ccccc4)C3=O)cc12 (stereo partly drawn) [compound 96]
activity against M^pro, in words [1]: inactive at 20 µM

CC(=O)NCC(=O)NC(C(=O)N[C@@H](C)C(=O)N[C@H](/C=C/S(=O)(=O)c1ccccc1)CCCNC(=N)N)[C@H](C)O (stereo partly drawn) [compound 106]
activity against CatS, in words (human cathepsin S (CatS)): not active at 20 µM | activity against rhodesain, in words (rhodesain): inactive

CC(=O)NCC(=O)NC(C(=O)N[C@@H](C)C(=O)N[C@H](/C=C(\F)S(=O)(=O)c1ccccc1)CCCNC(=N)N)[C@H](C)O (stereo partly drawn) [compound 107]
activity against CatS, in words (human cathepsin S (CatS)): not active at 20 µM | activity against rhodesain, in words (rhodesain): inactive

CC(C)C[C@H](NC(=O)OC(C)(C)C)C(=O)N[C@H]1CN(c2ccccc2)C1=O [compound 108]
reactivity with PhEtSH (protonated thiol), in words [2]: conversion was not observed | reactivity with PhEtSH + Et3N (deprotonated thiol), in words [3]: Every warhead except the β-lactam 108 and the nitrile 117 reacted | time to full conversion with EtONa ([4]; DMSO-d6): 60 min | reactivity with EtONa, in words [4]: complete conversion; also recorded: strong reactivity

CC(C)CC(/C=C/S(=O)(=O)c1ccccc1)NC(=O)OC(C)(C)C (stereo not drawn) [compound 109]
reactivity with PhEtSH (protonated thiol), in words [2]: conversion was not observed; also recorded: missing reactivity | time to full conversion with PhEtSH + Et3N ([3]; DMSO-d6): 60 min | reactivity with PhEtSH + Et3N (deprotonated thiol), in words [3]: high reactivity | conversion with EtONa ([4]; DMSO-d6, after 240 min): 70%

CC(C)CC(/C=C(\F)S(=O)(=O)c1ccccc1)NC(=O)OC(C)(C)C (stereo not drawn) [compound 110]
reactivity with PhEtSH (protonated thiol), in words [2]: conversion was not observed; also recorded: missing reactivity | maximum conversion with PhEtSH + Et3N ([3]; DMSO-d6, after 240 min): 86% | reactivity with PhEtSH + Et3N (deprotonated thiol), in words [3]: high reactivity | reactivity with EtONa, in words [4]: No conversion

CC(C)C[C@H](NC(=O)OC(C)(C)C)[13C](N)=O [compound 116]
time until equilibrium was reached with PhEtSH ([2]; DMSO-d6): 5 min
